Measured values published in US8455475B2 (Gruenenthal GmbH, priority 2009, dated 2013).

Target: T1, rat B1R (bradykinin receptor 1) (Rattus norvegicus, UniProt P97583)
T1 construct: expressed in transfected cells; host or cells: CHO K1 cells
T1 sequence (P97583 1-337): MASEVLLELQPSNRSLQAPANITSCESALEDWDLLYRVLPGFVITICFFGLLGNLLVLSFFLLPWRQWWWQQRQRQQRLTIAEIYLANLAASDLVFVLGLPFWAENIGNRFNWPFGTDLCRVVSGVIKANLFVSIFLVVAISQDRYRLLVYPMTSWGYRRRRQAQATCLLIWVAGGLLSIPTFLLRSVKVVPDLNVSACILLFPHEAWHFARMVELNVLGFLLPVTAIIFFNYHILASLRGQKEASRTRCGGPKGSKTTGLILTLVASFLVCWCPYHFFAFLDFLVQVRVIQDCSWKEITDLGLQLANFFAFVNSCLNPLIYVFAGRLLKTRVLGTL
Assay: FLIPR Ca2+ assay (Fluo-4) on CHO K1 cells stably transfected with the B1R gene of the rat (rB1R cells): % inhibition at 10 μM / IC50, agonist Des-Arg9-bradykinin
Assay type: cell-based
Conditions: CHO-K1, rat B1R
Procedure, shortened: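 Antagonism is measured as the drop in peak Fluo-4 Ca2+ signal when the EC80 agonist follows 10–20 min compound exposure. The single-point screen uses 10 μM; IC50 uses several concentrations. Values are given as % of maximal achievable inhibition.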

| SMILES | inhibition at 10 µM [%] |
| --- | --- |
| O=C(NC1CCc2ccc(C(=O)N3CCC4(CCN(Cc5ccc6ncccc6c5)CC4)C3)cc21)c1c(F)cccc1Cl (centres unmarked) [IND_CC-774, 2-Chloro-6-fluoro-N-[6-[8-(quinolin-6-yl-methyl)-2,8-diazaspiro[4.5]decane-2-carbonyl]-2,3-dihydro-1H-inden-1-yl]-benzamide] | 81 |
| O=C(NC1CCc2ccc(C(=O)N3CCC4(CCN(Cc5ccc6nccnc6c5)CC4)C3)cc21)c1c(F)cccc1Cl (centres unmarked) [IND_CC-775, 2-Chloro-6-fluoro-N-[6-[8-(quinoxalin-6-yl-methyl)-2,8-diazaspiro[4.5]decane-2-carbonyl]-2,3-dihydro-1H-inden-1-yl]-benzamide] | 98 |
| Cn1nnc2cc(CN3CCC4(CC3)CCN(C(=O)c3ccc5c(c3)C(NC(=O)c3c(F)cccc3Cl)CC5)C4)ccc21 (centres unmarked) [IND_CC-776, 2-Chloro-6-fluoro-N-[6-[8-[(1-methyl-1H-benzotriazol-5-yl)-methyl]-2,8-diazaspiro[4.5]decane-2-carbonyl]-2,3-dihydro-1H-inden-1-yl]-benzamide] | 99 |
| CC(C)CN1CCC2(CC1)CCN(C(=O)c1ccc3c(c1)C(NC(=O)c1c(F)cccc1Cl)CC3)C2 (centres unmarked) [IND_CC-777, 2-Chloro-6-fluoro-N-[6-[8-(2-methyl-propyl)-2,8-diazaspiro[4.5]decane-2-carbonyl]-2,3-dihydro-1H-inden-1-yl]-benzamide] | 83 |
| CCC(CC)CN1CCC2(CC1)CCN(C(=O)c1ccc3c(c1)C(NC(=O)c1c(F)cccc1Cl)CC3)C2 (centres unmarked) [IND_CC-778, 2-Chloro-N-[6-[8-(2-ethyl-butyl)-2,8-diazaspiro[4.5]decane-2-carbonyl]-2,3-dihydro-1H-inden-1-yl]-6-fluoro-benzamide] | 105 |
| O=C(NC1CCc2ccc(C(=O)N3CCC4(CCN(CC5CCCCC5)CC4)C3)cc21)c1c(F)cccc1Cl (centres unmarked) [IND_CC-779, 2-Chloro-N-[6-[8-(cyclohexyl-methyl)-2,8-diazaspiro[4.5]decane-2-carbonyl]-2,3-dihydro-1H-inden-1-yl]-6-fluoro-benzamide] | 69 |
| O=C(NC1CCc2ccc(C(=O)N3CCC4(CCN(CCc5ccccc5)CC4)C3)cc21)c1c(F)cccc1Cl (centres unmarked) [IND_CC-780, 2-Chloro-6-fluoro-N-[6-(8-phenethyl-2,8-diazaspiro[4.5]decane-2-carbonyl)-2,3-dihydro-1H-inden-1-yl]-benzamide] | 101 |
| O=C(NC1CCc2ccc(C(=O)N3CCC4(CCN(CCCc5cccc(F)c5)CC4)C3)cc21)c1c(F)cccc1Cl (centres unmarked) [IND_CC-781, 2-Chloro-6-fluoro-N-[6-[8-[3-(3-fluorophenyl)-propyl]-2,8-diazaspiro[4.5]decane-2-carbonyl]-2,3-dihydro-1H-inden-1-yl]-benzamide] | 106 |
| O=C(NC1CCc2ccc(C(=O)N3CCC4(CCN(CCCc5ccc(F)cc5)CC4)C3)cc21)c1c(F)cccc1Cl (centres unmarked) [IND_CC-782, 2-Chloro-6-fluoro-N-[6-[8-[3-(4-fluorophenyl)-propyl]-2,8-diazaspiro[4.5]decane-2-carbonyl]-2,3-dihydro-1H-inden-1-yl]-benzamide] | 107 |
| O=C(NC1CCc2ccc(C(=O)N3CCC4(CCN(Cc5ccc[nH]5)CC4)CC3)cc21)c1c(F)cccc1Cl (centres unmarked) [IND_CC-783, 2-Chloro-6-fluoro-N-[6-[9-(1H-pyrrol-2-yl-methyl)-3,9-diazaspiro[5.5]undecane-3-carbonyl]-2,3-dihydro-1H-inden-1-yl]-benzamide] | 102 |
| O=C(NC1CCc2ccc(C(=O)N3CCC4(CCN(Cc5ccccn5)CC4)CC3)cc21)c1c(F)cccc1Cl (centres unmarked) [IND_CC-784, 2-Chloro-6-fluoro-N-[6-[9-(pyridin-2-yl-methyl)-3,9-diazaspiro[5.5]undecane-3-carbonyl]-2,3-dihydro-1H-inden-1-yl]-benzamide] | 99 |
| O=C(NC1CCc2ccc(C(=O)N3CCC4(CCN(Cc5ccncc5)CC4)CC3)cc21)c1c(F)cccc1Cl (centres unmarked) [IND_CC-785, 2-Chloro-6-fluoro-N-[6-[9-(pyridin-4-yl-methyl)-3,9-diazaspiro[5.5]undecane-3-carbonyl]-2,3-dihydro-1H-inden-1-yl]-benzamide] | 98 |
| O=C(NC1CCc2ccc(C(=O)N3CCC4(CCN(Cc5cccnc5)CC4)CC3)cc21)c1c(F)cccc1Cl (centres unmarked) [IND_CC-786, 2-Chloro-6-fluoro-N-[6-[9-(pyridin-3-yl-methyl)-3,9-diazaspiro[5.5]undecane-3-carbonyl]-2,3-dihydro-1H-inden-1-yl]-benzamide] | 104 |
| Cn1cccc1CN1CCC2(CC1)CCN(C(=O)c1ccc3c(c1)C(NC(=O)c1c(F)cccc1Cl)CC3)CC2 (centres unmarked) [IND_CC-787, 2-Chloro-6-fluoro-N-[6-[9-[(1-methyl-1H-pyrrol-2-yl)-methyl]-3,9-diazaspiro[5.5]undecane-3-carbonyl]-2,3-dihydro-1H-inden-1-yl]-benzamide] | 93 |
| O=C(NC1CCc2ccc(C(=O)N3CCC4(CCN(Cc5c(F)cccc5F)CC4)CC3)cc21)c1c(F)cccc1Cl (centres unmarked) [IND_CC-788, 2-Chloro-N-[6-[9-[(2,6-difluoro-phenyl)-methyl]-3,9-diazaspiro[5.5]undecane-3-carbonyl]-2,3-dihydro-1H-inden-1-yl]-6-fluoro-benzamide] | 71 |
| O=C(NC1CCc2ccc(C(=O)N3CCC4(CCN(Cc5ccc(F)c(F)c5)CC4)CC3)cc21)c1c(F)cccc1Cl (centres unmarked) [IND_CC-789, 2-Chloro-N-[6-[9-[(3,4-difluoro-phenyl)-methyl]-3,9-diazaspiro[5.5]undecane-3-carbonyl]-2,3-dihydro-1H-inden-1-yl]-6-fluoro-benzamide] | 98 |
| O=C(NC1CCc2ccc(C(=O)N3CCC4(CCN(Cc5cc(F)ccc5F)CC4)CC3)cc21)c1c(F)cccc1Cl (centres unmarked) [IND_CC-790, 2-Chloro-N-[6-[9-[(2,5-difluoro-phenyl)-methyl]-3,9-diazaspiro[5.5]undecane-3-carbonyl]-2,3-dihydro-1H-inden-1-yl]-6-fluoro-benzamide] | 96 |
| O=C(NC1CCc2ccc(C(=O)N3CCC4(CCN(Cc5ccc(F)cc5F)CC4)CC3)cc21)c1c(F)cccc1Cl (centres unmarked) [IND_CC-791, 2-Chloro-N-[6-[9-[(2,4-difluoro-phenyl)-methyl]-3,9-diazaspiro[5.5]undecane-3-carbonyl]-2,3-dihydro-1H-inden-1-yl]-6-fluoro-benzamide] | 91 |
| COc1ccc(CN2CCC3(CC2)CCN(C(=O)c2ccc4c(c2)C(NC(=O)c2c(F)cccc2Cl)CC4)CC3)cc1F (centres unmarked) [IND_CC-792, 2-Chloro-6-fluoro-N-[6-[9-[(3-fluoro-4-methoxy-phenyl)-methyl]-3,9-diazaspiro[5.5]undecane-3-carbonyl]-2,3-dihydro-1H-inden-1-yl]-benzamide] | 89 |
| COc1cccc(F)c1CN1CCC2(CC1)CCN(C(=O)c1ccc3c(c1)C(NC(=O)c1c(F)cccc1Cl)CC3)CC2 (centres unmarked) [IND_CC-793, 2-Chloro-6-fluoro-N-[6-[9-[(2-fluoro-6-methoxy-phenyl)-methyl]-3,9-diazaspiro[5.5]undecane-3-carbonyl]-2,3-dihydro-1H-inden-1-yl]-benzamide] | 79 |
| COc1ccc(CN2CCC3(CC2)CCN(C(=O)c2ccc4c(c2)C(N2Cc5c(c6c(Cl)cccc6n5C)C2=O)CC4)C3)cc1F (centres unmarked) [IND_CC-794, 8-Chloro-2-[6-[8-[(3-fluoro-4-methoxy-phenyl)-methyl]-2,8-diazaspiro[4.5]-decane-2-carbonyl]-2,3-dihydro-1H-inden-1-yl]-4-methyl-3,4-dihydro-2H-pyrrolo[3,4-b]indol-1-one] | 59 |
| COc1cccc(F)c1CN1CCC2(CC1)CCN(C(=O)c1ccc3c(c1)C(N1Cc4c(c5c(Cl)cccc5n4C)C1=O)CC3)C2 (centres unmarked) [IND_CC-795, 8-Chloro-2-[6-[8-[(2-fluoro-6-methoxy-phenyl)-methyl]-2,8-diazaspiro[4.5]-decane-2-carbonyl]-2,3-dihydro-1H-inden-1-yl]-4-methyl-3,4-dihydro-2H-pyrrolo[3,4-b]indol-1-one] | 54 |
| Cn1cncc1CN1CCC2(CC1)CCN(C(=O)c1ccc3c(c1)C(NC(=O)c1c(F)cccc1Cl)CC3)CC2 (centres unmarked) [IND_CC-796, 2-Chloro-6-fluoro-N-[6-[9-[(3-methyl-3H-imidazol-4-yl)-methyl]-3,9-diazaspiro[5.5]undecane-3-carbonyl]-2,3-dihydro-1H-inden-1-yl]-benzamide] | 66 |
| O=C(NC1CCc2ccc(C(=O)N3CCC4(CCN(Cc5csnn5)CC4)CC3)cc21)c1c(F)cccc1Cl (centres unmarked) [IND_CC-797, 2-Chloro-6-fluoro-N-[6-[9-([1,2,3]thiadiazol-4-yl-methyl)-3,9-diazaspiro[5.5]undecane-3-carbonyl]-2,3-dihydro-1H-inden-1-yl]-benzamide] | 91 |
| Cc1c(CN2CCC3(CC2)CCN(C(=O)c2ccc4c(c2)C(NC(=O)c2c(F)cccc2Cl)CC4)CC3)cnn1C (centres unmarked) [IND_CC-798, 2-Chloro-N-[6-[9-[(1,5-dimethyl-1H-pyrazol-4-yl)-methyl]-3,9-diazaspiro-[5.5]undecane-3-carbonyl]-2,3-dihydro-1H-inden-1-yl]-6-fluoro-benzamide] | 71 |
| Cc1noc(C)c1CN1CCC2(CC1)CCN(C(=O)c1ccc3c(c1)C(NC(=O)c1c(F)cccc1Cl)CC3)CC2 (centres unmarked) [IND_CC-799, 2-Chloro-N-[6-[9-[(3,5-dimethyl-isoxazol-4-yl)-methyl]-3,9-diazaspiro-[5.5]undecane-3-carbonyl]-2,3-dihydro-1H-inden-1-yl]-6-fluoro-benzamide] | 52 |
